Source: ChEMBL document CHEMBL4402608 (J Med Chem, 2020)

Experiments:
Assay type in all cases: cell-based; call rule not given here
D(2) dopamine receptor [1] = target: T1, D(2) dopamine receptor (Homo sapiens, UniProt P14416); test: Antagonist activity at human D2R expressed in CHOK1 cells assessed as inhibition of dopamine-induced beta-arrestin recruitment measured after 120 mins by beta-galactosidase based PathHunter assay
D(3) dopamine receptor = D(3) dopamine receptor (Homo sapiens, UniProt P35462); test: Agonist activity at human D3R expressed in CHOK1 cells assessed as induction of beta-arrestin recruitment measured after 90 mins by beta-galactosidase based PathHunter assay
D(2) dopamine receptor [2] = target: T1, D(2) dopamine receptor; test: Agonist activity at human D2R expressed in CHOK1 cells assessed as induction of beta-arrestin recruitment measured after 90 mins by beta-galactosidase based PathHunter assay

SMILES | IC50 (D(2) dopamine receptor [1]; read-out: IC50) [µM] | EC50 (D(3) dopamine receptor; read-out: EC50) [nM] | EC50 (D(2) dopamine receptor [2]; read-out: EC50) [µM] | IC50 (D(2) dopamine receptor [1]) | EC50 (D(2) dopamine receptor [2]) | EC50 (D(3) dopamine receptor)
COc1ccc(OCCN2CCN(C(=O)c3ccncc3)CC2)cc1 |  | 22000 |  | Not Active | Not Active | 
COc1ccc(C(=O)N2CCN(CCOc3cccnc3)CC2)c(C)c1 | > 100 | 116 | 4.6 |  |  | 
O=C(c1cc2cccc(Cl)c2[nH]1)N1CCN(CCOc2cccnc2)CC1 |  |  | 0.617 | Not Active |  | 
COc1ccc(C(=O)N2CCN(CCOc3ccc(OC(F)(F)F)cc3)CC2)cc1 | > 50 |  |  |  | Not Active | Not Active
O=C(c1ccc[nH]1)N1CCN(CCOc2cccnc2)CC1 | > 100 | 118 | 6.1 |  |  | 
COc1ccc(OCCN2CCN(C(=O)c3ccccc3OC)CC2)cc1 | > 100 | 2500 |  |  | Not Active | 
COc1ccc(OCCN2CCN(C(=O)c3ccc(OC)cn3)CC2)cc1 | > 100 | 2100 | > 50 |  |  | 
O=C(c1n[nH]c2ccccc12)N1CCN(CCOc2cccnc2)CC1 |  |  | 4.1 | Not Active |  | 
COc1ccc(OCCC2CCN(C(=O)c3cc4ccccc4[nH]3)CC2)cc1 |  |  |  | Not Active | Not Active | Not Active
Cn1c(C(=O)N2CCN(CCOc3cccnc3)CC2)cc2ccccc21 |  | 37.6 | 6.2 | Not Active |  | 
COc1ccc(C(=O)N2CCN(CCOc3cccc(OC)c3)CC2)cc1 |  | 98 |  |  |  | 
COc1ccc(OCCN2CCN(C(C)=O)CC2)cc1 |  | 9700 |  | Not Active | Not Active | 
O=C(c1cc2ccncc2[nH]1)N1CCN(CCOc2cccnc2)CC1 |  | 81 |  |  |  | 
COc1ccc(OCCN2CCN(c3ccc(OC)cc3)CC2)cc1 | > 50 |  |  |  | Not Active | Not Active
COc1ccc(C(=O)N2CCN(CCOc3cccnc3)CC2)cc1 | > 100 | 17 | 2.9 |  |  | 
O=C(c1nc2ccccc2[nH]1)N1CCN(CCOc2cccnc2)CC1 |  |  | 2.4 | Not Active |  | 
COc1cccc(OCCN2CCN(C(=O)c3cc4cccnc4[nH]3)CC2)c1 |  | 50 | 0.128 | Not Active |  | 
Cc1cccc2[nH]c(C(=O)N3CCN(CCOc4cccnc4)CC3)cc12 |  |  | 0.18 | Not Active |  | 
COc1ccc(OCCN2CCN(C(=O)c3cccc(OC)c3)CC2)cc1 |  | 550 |  |  |  | 
COc1ccc(OCCN2CCN(C(=O)C3CCCCC3)CC2)cc1 | > 50 | > 50000 |  |  | Not Active | 
O=C(c1cc2ncccc2[nH]1)N1CCN(CCOc2cccnc2)CC1 |  | 200 | 3 | Not Active |  | 
COc1ccc2[nH]c(C(=O)N3CCN(CCOc4cccnc4)CC3)cc2c1 |  |  | 2.6 | Not Active |  | 
COc1ccc(OCC(C)N2CCN(C(=O)c3ccc(OC)cc3)CC2)cc1 (racemic) | > 100 |  |  |  | Not Active | 

More lines, now with the values ahead:

IC50 (D(2) dopamine receptor [1]; read-out: IC50) [µM] | EC50 (D(3) dopamine receptor; read-out: EC50) [nM] | EC50 (D(2) dopamine receptor [2]; read-out: EC50) [µM] | IC50 (D(2) dopamine receptor [1]) | EC50 (D(2) dopamine receptor [2]) | EC50 (D(3) dopamine receptor) | SMILES
> 100 | 160 | 7.1 |  |  |  | COc1ccc(OCCN2CCN(C(=O)c3cc4c(Cl)cccc4[nH]3)CC2)cc1
> 100 | 611 | > 50 |  |  |  | COc1ccc(OCCN2CCN(C(=O)c3cc4cc(C)ccc4[nH]3)CC2)cc1
 |  |  | Not Active | Not Active |  | O=C(c1cc2ccccc2[nH]1)N1CCN(CCOc2ccc([N+](=O)[O-])cc2)CC1
 |  | > 100 | Not Active |  |  | COc1ccc(OCCN2CCN(C(=O)c3cc4ncccc4[nH]3)CC2)cc1
 | 210 |  |  |  |  | COc1ccc(OCCN2CCN(C(=O)c3c[nH]c4ccccc34)CC2)cc1
> 100 | 473 | 10.1 |  |  |  | COc1ccc(OCCN2CCN(C(=O)c3cc4cccc(C)c4[nH]3)CC2)cc1
 |  |  | Not Active | Not Active |  | COc1ccc(OCCN2CCN(C(=O)c3cc4cc(Cl)ccc4[nH]3)CC2)cc1
> 10 | 980 | 6 |  |  |  | COc1ccc(OCCN2CCN(C(=O)c3cc4cccc(OC)c4[nH]3)CC2)cc1
 | 60.9 |  |  |  |  | O=C(c1cc2ccccc2[nH]1)N1CCN(CCOc2ccc3[nH]ccc3c2)CC1
 | 13 | 1.3 | Not Active |  |  | Cc1ccc2[nH]c(C(=O)N3CCN(CCOc4cccnc4)CC3)cc2c1
> 100 | 1900 | 4.4 |  |  |  | COc1ccc(OCCN2CCN(C(=O)c3[nH]c4ccccc4c3C)CC2)cc1
> 100 | 810 | 7.8 |  |  |  | COc1ccc(OCCN2CCN(C(=O)c3cc4ccncc4[nH]3)CC2)cc1
 | 290 |  |  |  |  | O=C(c1cc2ccccc2[nH]1)N1CCN(CCOc2ccc3c(c2)OCO3)CC1
 |  |  |  |  | Not Active | COc1ccc(OCCCCN2CCN(C(=O)c3cc4ccccc4[nH]3)CC2)cc1
> 100 |  |  |  | Not Active |  | O=C(c1cc2ccccc2[nH]1)N1CCN(CCOc2ccc(Br)cc2)CC1
> 100 | 520 | 7.8 |  |  |  | COc1ccc(OCCN2CCN(C(=O)c3cc4cc(OC)ccc4[nH]3)CC2)cc1
